# Test results as given in patent US20110144079A1, “ANTIMICROBIAL SYSTEM” (priority 2008, published 2011).
# Assays:
# P. mirabilis NCTC 12442 [1] = test: Broth microdilution MIC/MBC; type: cell-based; conditions: Proteus mirabilis, NCTC12442; for MBC: P. mirabilis NCTC 12442, 99.9% killing; for MIC: P. mirabilis NCTC 12442, 24 h at 37° C.
# Summary of the method: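 Imidazolium salts two-fold diluted in Mueller-Hinton broth over 0.0000625-1% w/v, inoculum 2×10^5 CFU/ml, aerobic 24 h at 37° C., per NCCLS. MBC: 20 μl from no-growth wells plated on MHA, 24 h, scored for 99.9% killing.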
# MRSA [2] = test: Biofilm assay (Calgary Biofilm Device), MBEC; type: cell-based, methicillin-resistant S. aureus; conditions: for MBEC: MRSA 24 h biofilm, 24 h challenge; for percent weight to volume of ionic liquid that corresponds to the MBEC value: MRSA biofilm
# Protocol: (§1) Biofilms of each test organism were grown in the Calgary Biofilm Device (commercially available as the MBEC Assay™ for Physiology & Genetics, Innovotech Inc., Edmonton, Alberta, Canada). The device, a micro-titre plated based assay, consists of two parts; a microtitre plate containing the inoculated test medium and a polystyrene lid with 96 identical pegs on which the microbial biofilm forms under gyrorotary incubation. The biofilm assay was conducted according to the MBEC™ assay protocol as supplied by the manufacturer, with slight modifications. Inocula of each test organism were prepared in MHB as described above and adjusted to provide a final inoculum density of ˜10^7 CFU ml^−1 (as confirmed by viable count). 150 μl of the inoculated media was transferred to each well of the 96-well microtitre plate and the assay plate lid, bearing 96 pegs was placed into the microtitre plate. The MBEC assay plates were placed in a gyrorotary incubator (37° C., 95% relative humidity) for 24 h to permit growth and comparison of 24 h biofilms of each test strain. Positive and negative growth controls were included in each plate (6 replicates). Initial and 24 h planktonic viable counts were measured, as were 24 h biofilm counts, expressed as CFU peg^−1, according to manufacturers instructions. After 24 h, the peg lid of the MBEC assay plate was gently rinsed three times. After rinsing, the peg lid of the MBEC assay was transferred to a ‘challenge’ plate. Serial dilutions of each imidazolium salt were prepared in 200 μl of MHB containing various concentrations of IL in each well. Positive growth control and sterility control were included in each assay plate. […] Biofilms were dislodged into recovery media by sonication for 5 minutes and the peg lid discarded. The recovery plate is incubated overnight and visually checked after 24 h for turbidity. In addition, optical density measurements for each plate were recorded at 550 nm. Clear wells were taken as evidence of biofilm eradication and the MBEC value was assigned as the lowest concentration at which no growth was observed after 24 h incubation. Plates were incubated for a further 24 h to confirm biofilm eradication concentrations.
# B. cenocepacia J2315 = test: Biofilm assay (Calgary Biofilm Device), MBEC; type: cell-based; conditions: B. cenocepacia J2315 24 h biofilm, 24 h challenge
# Protocol: as §1
# P. aeruginosa PA01 = test: Biofilm assay (Calgary Biofilm Device), MBEC; type: cell-based; conditions: for MBEC: P. aeruginosa PA01 24 h biofilm, 24 h challenge; for percent weight to volume of ionic liquid that corresponds to the MBEC value: P. aeruginosa PA01 biofilm
# Protocol: as §1
# C. tropicalis NCTC 7393 = test: Biofilm assay (Calgary Biofilm Device), MBEC; type: cell-based; conditions: C. tropicalis NCTC 7393 24 h biofilm, 24 h challenge
# Protocol: as §1
# K. aerogenes NCTC 7427 = test: Biofilm assay (Calgary Biofilm Device), MBEC; type: cell-based; conditions: K. aerogenes NCTC 7427 24 h biofilm, 24 h challenge
# Protocol: as §1
# [3] = system: S. epidermidis ATCC 35984; test: Biofilm assay (Calgary Biofilm Device), MBEC; type: cell-based; conditions: for MBEC: S. epidermidis ATCC 35984 24 h biofilm, 24 h challenge; for percent weight to volume of ionic liquid that corresponds to the MBEC value: S. epidermidis ATCC 35984 biofilm
# Protocol: as §1
# E-MRSA 15 = test: Biofilm assay (Calgary Biofilm Device), MBEC; type: cell-based; conditions: E-MRSA 15 24 h biofilm, 24 h challenge
# Protocol: as §1
# S. aureus ATCC 29213 = test: Biofilm assay (Calgary Biofilm Device), MBEC; type: cell-based; conditions: S. aureus ATCC 29213 24 h biofilm, 24 h challenge
# Protocol: as §1
# E. coli PIII [4] = test: Biofilm assay (Calgary Biofilm Device), MBEC; type: cell-based; conditions: for MBEC: E. coli PIII 24 h biofilm, 24 h challenge; for percent weight to volume of ionic liquid that corresponds to the MBEC value: E. coli PIII biofilm
# Protocol: as §1
# P. mirabilis NCTC 12442 [5] = test: Biofilm assay (Calgary Biofilm Device), MBEC; type: cell-based; conditions: P. mirabilis NCTC 12442 24 h biofilm, 24 h challenge
# Protocol: as §1
# Escherichia Coli = test: Kill kinetics, planktonic cell cultures; type: cell-based
# Description: (§2) The kill kinetic data is provided in terms of the measured colony forming units per millilitre (CFU/mL) values, and is also provided graphically in FIGS. 9-11.
# [6] = system: Staphylococcus Epidermidis; test: Kill kinetics, planktonic cell cultures; type: cell-based
# Description: as §2
# [7] = system: Methicillin Resistant Staphylococcus Aureus (MRSA); test: Kill kinetics, planktonic cell cultures; type: cell-based
# Description: as §2
# MRSA [8] = test: Zone of inhibition on MRSA-seeded agar culture plates; type: cell-based, methicillin-resistant S. aureus; conditions: 40 μL of ionic liquid applied to MRSA-seeded agar culture plates
# Description: As used herein, CyMIMCI, refers to 1-alkyl-3-methyl-imidazolium chloride ionic liquids, wherein the alkyl group is a straight chain alkyl group having y carbon atoms.
# E. coli PIII [9] = test: Broth microdilution MIC; type: cell-based; conditions: Escherichia coli
# Protocol: Broth microdilution tests were performed according to NCCLS guidelines. Serial two-fold dilutions of each imidazolium salt (from an original working solution which had been 0.22 μm sterile filtered) in Mueller-Hinton Broth (MHB) (100 μl) were prepared in 96-well micro-titre plates over the range 0.0000625-1% w/v. The inoculum to be tested was prepared by adjusting the turbidity of an actively overnight growing broth culture in MHB to an optical density at 550 nm equivalent to 1×10^8 CFU/ml. The suspension was further diluted to provide a final inoculum density of 2×10^5 CFU/ml in MHB as verified by total viable count. The inoculum to be tested (100 μl, 2×10^5 CFU ml^−1) was added to each well of the microdilution trays which were incubated aerobically for 24 h at 37° C. Positive and negative growth controls were included in every assay (6 replicates). After determining the MICs, minimum bactericidal concentrations (MBCs) were determined by spreading 20 μl of suspension from wells showing no growth onto MHA plates, which were then incubated for 24 h and examined for 99.9% killing.
SMILES,MBC (P. mirabilis NCTC 12442 [1]) [µM],MIC (P. mirabilis NCTC 12442 [1]) [µM],MBEC (MRSA [2]) [µM],percent weight to volume of ionic liquid that corresponds to the MBEC value (MRSA [2]),MBEC (B. cenocepacia J2315) [µM],MBEC (P. aeruginosa PA01) [µM],percent weight to volume of ionic liquid that corresponds to the MBEC value (P. aeruginosa PA01),MBEC (C. tropicalis NCTC 7393) [µM],MBEC (K. aerogenes NCTC 7427) [µM],MBEC [3] [µM],percent weight to volume of ionic liquid that corresponds to the MBEC value [3],MBEC (E-MRSA 15) [µM],MBEC (S. aureus ATCC 29213) [µM],MBEC (E. coli PIII [4]) [µM],percent weight to volume of ionic liquid that corresponds to the MBEC value (E. coli PIII [4]),MBEC (P. mirabilis NCTC 12442 [5]) [µM],Zone Of Inhibition Radius (MRSA [8]) [mm],MIC (E. coli PIII [9]) [µM],further results
"CCCCCCCCCCCCn1cc[n+](C)c1.[Cl-] [C12MIMCl, 1-dodecyl-3-methylimidazolium chloride]",1160,580,545,(0.016) % w/v,2179,1089,(0.031) % w/v,8714,2179,272,(0.008) % w/v,272,272,1089,(0.031) % w/v,4357,17,73,"colony forming units per millilitre (Escherichia Coli; 871 μM, 0 Minutes): 1.13 × 10^8 CFU/mL; colony forming units per millilitre (Escherichia Coli; 871 μM, 5 Minutes): 0.00 CFU/mL; colony forming units per millilitre (Escherichia Coli; 871 μM, 10 Minutes): 0.00 CFU/mL; colony forming units per millilitre (Escherichia Coli; 871 μM, 20 Minutes): 0.00 CFU/mL; colony forming units per millilitre (Escherichia Coli; 871 μM, 30 Minutes): 0.00 CFU/mL; colony forming units per millilitre (Escherichia Coli; 871 μM, 45 Minutes): 0.00 CFU/mL; colony forming units per millilitre ([6]; 145 μM, 0 Minutes): 6.25 × 10^7 CFU/mL; colony forming units per millilitre ([6]; 145 μM, 5 Minutes): 1.67 × 10^2 CFU/mL; colony forming units per millilitre ([6]; 145 μM, 10 Minutes): 0.00 CFU/mL; colony forming units per millilitre ([6]; 145 μM, 20 Minutes): 0.00 CFU/mL; colony forming units per millilitre ([6]; 145 μM, 30 Minutes): 0.00 CFU/mL; colony forming units per millilitre ([6]; 145 μM, 45 Minutes): 0.00 CFU/mL; colony forming units per millilitre ([7]; 290 μM, 0 Minutes): 2.08 × 10^8 CFU/mL; colony forming units per millilitre ([7]; 290 μM, 5 Minutes): 2.75 × 10^5 CFU/mL; colony forming units per millilitre ([7]; 290 μM, 10 Minutes): 0.00 CFU/mL; colony forming units per millilitre ([7]; 290 μM, 20 Minutes): 0.00 CFU/mL; colony forming units per millilitre ([7]; 290 μM, 30 Minutes): 0.00 CFU/mL; colony forming units per millilitre ([7]; 290 μM, 45 Minutes): 0.00 CFU/mL"
"CCCCCCCCCCCCCCn1cc[n+](C)c1.[Cl-] [C14MIMCl, 1-tetradecyl-3-methylimidazolium chloride]",530,264,124,(0.004 % w/v,496,496,(0.016 % w/v,248,248,124,(0.004 % w/v,248,124,124,(0.004 % w/v,1984,10,33,"colony forming units per millilitre (Escherichia Coli; 265 μM, 0 Minutes): 1.67 × 10^8 CFU/mL; colony forming units per millilitre (Escherichia Coli; 265 μM, 5 Minutes): 1.07 × 10^4 CFU/mL; colony forming units per millilitre (Escherichia Coli; 265 μM, 10 Minutes): 2.33 × 10^3 CFU/mL; colony forming units per millilitre (Escherichia Coli; 265 μM, 20 Minutes): 0.00 CFU/mL; colony forming units per millilitre (Escherichia Coli; 265 μM, 30 Minutes): 0.00 CFU/mL; colony forming units per millilitre (Escherichia Coli; 265 μM, 45 Minutes): 0.00 CFU/mL; colony forming units per millilitre ([6]; 40 μM, 0 Minutes): 8.67 × 10^7 CFU/mL; colony forming units per millilitre ([6]; 40 μM, 5 Minutes): 0.00 CFU/mL; colony forming units per millilitre ([6]; 40 μM, 10 Minutes): 0.00 CFU/mL; colony forming units per millilitre ([6]; 40 μM, 20 Minutes): 0.00 CFU/mL; colony forming units per millilitre ([6]; 40 μM, 30 Minutes): 0.00 CFU/mL; colony forming units per millilitre ([6]; 40 μM, 45 Minutes): 0.00 CFU/mL; colony forming units per millilitre ([7]; 40 μM, 0 Minutes): 1.52 × 10^8 CFU/mL; colony forming units per millilitre ([7]; 40 μM, 5 Minutes): 1.78 × 10^5 CFU/mL; colony forming units per millilitre ([7]; 40 μM, 10 Minutes): 2.75 × 10^3 CFU/mL; colony forming units per millilitre ([7]; 40 μM, 20 Minutes): 3.33 × 10^2 CFU/mL; colony forming units per millilitre ([7]; 40 μM, 30 Minutes): 0.00 CFU/mL; colony forming units per millilitre ([7]; 40 μM, 45 Minutes): 0.00 CFU/mL"
"CCCCCCCCCCn1cc[n+](C)c1.[Cl-] [C10MIMCl, 1-decyl-3-methylimidazolium chloride]",1290,1290,4829,(0.125) % w/v,19318,2415,(0.063) % w/v,19318,19318,4829,(0.125) % w/v,1207,2415,9659,(0.25) % w/v,9659,17,321,"colony forming units per millilitre (Escherichia Coli; 2000 μM, 0 Minutes): 6.25 × 10^7 CFU/mL; colony forming units per millilitre (Escherichia Coli; 2000 μM, 5 Minutes): 3.33 × 10^2 CFU/mL; colony forming units per millilitre (Escherichia Coli; 2000 μM, 10 Minutes): 0.00 CFU/mL; colony forming units per millilitre (Escherichia Coli; 2000 μM, 20 Minutes): 0.00 CFU/mL; colony forming units per millilitre (Escherichia Coli; 2000 μM, 30 Minutes): 0.00 CFU/mL; colony forming units per millilitre (Escherichia Coli; 2000 μM, 45 Minutes): 0.00 CFU/mL; colony forming units per millilitre ([6]; 644 μM, 0 Minutes): 8.96 × 10^7 CFU/mL; colony forming units per millilitre ([6]; 644 μM, 5 Minutes): 8.58 × 10^5 CFU/mL; colony forming units per millilitre ([6]; 644 μM, 10 Minutes): 6.92 × 10^4 CFU/mL; colony forming units per millilitre ([6]; 644 μM, 20 Minutes): 1.06 × 10^4 CFU/mL; colony forming units per millilitre ([6]; 644 μM, 30 Minutes): 2.42 × 10^3 CFU/mL; colony forming units per millilitre ([6]; 644 μM, 45 Minutes): 9.17 × 10^2 CFU/mL; colony forming units per millilitre ([7]; 1379 μM, 0 Minutes): 1.10 × 10^8 CFU/mL; colony forming units per millilitre ([7]; 1379 μM, 5 Minutes): 3.67 × 10^7 CFU/mL; colony forming units per millilitre ([7]; 1379 μM, 10 Minutes): 5.00 × 10^6 CFU/mL; colony forming units per millilitre ([7]; 1379 μM, 20 Minutes): 5.75 × 10^4 CFU/mL; colony forming units per millilitre ([7]; 1379 μM, 30 Minutes): 6.67 × 10^2 CFU/mL; colony forming units per millilitre ([7]; 1379 μM, 45 Minutes): 8.33 × 10^1 CFU/mL"
